Consider 1 compound from patent US20250163057A1, “DCN-1 MODULATING COMPOUNDS AND METHODS OF USE THEREOF” (Cellarity, Inc., priority 2023, published 2025).

For this experiment, the system named is HBG1 mRNA and HbF protein in bone marrow cells. In words: Induction of fetal hemoglobin by hydroxyurea and I-73 in human CD34+ cell reconstituted immunodeficient mice, with analysis of synergistic effect. It is filed as in vivo, NBSGW mice engrafted with human CD34+ cells. On the procedure: The model employed for assessment of induction of fetal hemoglobin by I-73 and hydroxyurea involved the use of human stem cell-reconstituted immunodeficient mice. Specifically, three hundred thousand human CD34-positive cells from G-CSF-mobilized human peripheral blood […] (PBMCs) were injected into the tail veins of NOD.Cg-KitW-41J Tyr+Prkdcscid Il2rgtm1Wjl/ThomJ (NBSGW) mice (JAX Strain No. 026622) on day 0. Twelve weeks later, mice were checked for human cell engraftment by sampling PBMCs from blood taken from the tail vein and staining for expression of murine or human CD45 by flow cytometry. After removing from the study those mice having greater than 10% human cells or less than 1% human cells in their peripheral blood, the remaining mice were randomized into treatment groups based on the human cell percentage. Thirteen weeks post engraftment, treatment was initiated with either hydroxyurea, I-73, or a combination of both compounds. Hydroxyurea was formulated in PBS (pH 7.4) and I-73 was formulated in 5% Cremophor RH 40/20% hydroxypropyl-β-cyclodextrin (Crem-CD) daily. Mice received either PBS or hydroxyurea each morning and I-73 or Crem-CD each afternoon by oral gavage. After twenty days of daily treatment, the mice were euthanized and their bone marrow (femurs, tibia and critae) were individually collected for subsequent analysis.
Bone marrow cell pellets (total 500K cells) were lysed in 20 μL of RLT (QIAGEN, 79216) with 1×β-mercaptoethanol (Gibco, 21985-023) and H2O followed by hybridizations. Hybridizations were done in a total volume of 15 μL [3 μL of RNA lysate added to master mix of 12 μL probe A/B (purchased from IDT), capture probe/reporter probes (NanoString™, XT TagSet-24, 121000602), proteinase K (Fisher Scientific, E00491) and H2O suspended in hybridization buffer]. Samples were hybridized at 65° C. for 22 hr. Following hybridization, the tripartide complexes were purified, immobilized by nCounter Prep Station and imaged by Digital Analyzer (nCounter MAX/FLEX Analysis System), to generate digital counts of barcodes corresponding to each target in the multiplexed reaction. Labeled barcodes obtained from unamplified extracts were counted at 555 images or field of view (FOV). The barcode counts for each sample were recorded in Reporter Code Count (RCC) files that are imported into nSolver analysis software (provided with CodeSet by NS) for quality control evaluation.
To assess levels of fetal hemoglobin by AlphaLISA, cells (200 k bone marrow cells/well) were lysed by resuspending pellets in 200 μL of lysis buffer plus protease inhibitor cocktail (100×), mixed well and incubating at room temperature for 30 minutes on the plate shaker @300 RPMs. Samples were then diluted 1:10 in a new 96-well round bottom plate by taking 10 uL of lysate and adding 90 μL of AlphaLISA immunoassay buffer. To create the “reaction plate”, 20 μL of Acceptor Beads (50 ug/mL final concentration) was added to each well using a multi-channel pipet. 10 uL of diluted cell lysate was added to the wells and mixed well. 20 μL of AlphaLISA immunoassay buffer was added to each well. Biotinylated antibody (final concentration) was then added to each well. The reaction plate on then placed on a plate shaker at 300 rpm for one hour to incubate at room temperature. After the first incubation was complete, 50 μL of Donor Beads ([…] final concentration) was added to each well and mixed well, keeping the plate in the dark. The covered plate was placed on a shaker at 350 rpm for 30 minutes to incubate at room temperature. After incubation, all 100 uL in each to an AlphaPlate in the dark. Plates were read on a VictorNIVO using the “Alpha 96 Well” setting. Alpha reading was programmed as the default setting with emission at 700 ms and 575/110n. […]

As to `CCN1C(=O)[C@@H](NC(=O)c2cccc(C(F)(F)F)c2)[C@@H](c2ccc(F)cc2)c2c([C@@H](C)NC#N)nn(-c3ccccc3)c21` [Compound I-73, N-((4S,5S)-3-((R)-1-cyanamidoethyl)-7-ethyl-4-(4-fluorophenyl)-6-oxo-1-phenyl-4,5,6,7-tetrahydro-1H-pyrazolo[3,4-b]pyridin-5-yl)-3-(trifluoromethyl)benzamide], the “average increase of HbF % over vehicle” value (I-73 25 mg/kg alone, WLS ANOVA estimate) was 1.11. The “percentage of HbF protein by HPLC in GlyA-positive bone marrow cells” value (compared with vehicle treatment group, FIG. 7) is listed as “significant increase”. For the same compound, the “percentage of bone marrow cells expressing human CD45” value (in vivo) was “did not alter”. Where the note is “treatment alone”, the “HbF level on a per erythroid progenitor (GlyA-positive) cell basis by AlphaLISA” value is on record as “induced increased levels of HbF”.
